Measured values from patent US11672864B2, “Nanostructured gels capable of controlled release of encapsulated agents” (The Brigham and Women's Hospital, Inc., priority 2010, dated 2023).
Each block holds one compound with its values, some of them ahead of it.

Tests used:
[1] = system: fibroblasts (NIH3T3); experiment: Cytotoxicity of CPT encapsulated SMS self-assembled fibers, NIH3T3; assay type: cell-based; settings: Mus musculus; NIH3T3 fibroblasts in culture; unit inferred
Description: (§1) Cytotoxicity Studies of CPT Encapsulated SMS Self-Assembled Fibers. Prior to in vivo studies, evaluation of efficacy of drug delivery systems using appropriate cell lines is an essential step. Efficacy of CPT loaded SMS self-assembled fibers were investigated using glioma cell line, G55 and control cell line fibroblast, NIH3T3. […] We hypothesize that highly proliferative glioma G55 cells secretes high concentrations of enzymes that degrade the self-assembled fibers to release CPT efficiently, whereas free form of CPT degrades in the media due to its low half-life at physiological conditions. […] Encapsulation of Camptothecin and PARP-Inhibitor (AGO14699).

[2] = system: glioma cell line, G55; experiment: Cytotoxicity of CPT encapsulated SMS self-assembled fibers, G55; assay type: cell-based; settings: G55 cells in culture
Description: as §1

[3] = Gelation and stability of Abz-derived amphiphiles; assay type: physicochemical
Protocol: A variety of Abz-derived amphiphiles were synthesized (Scheme 3-1). […] In general, mixtures of polar organic solvents with water gave the best gelation results, with only two pure organogels forming (Abz-Alloc in glycerol, and Abz-Chol in 1,4-dioxane). […] The four amphiphiles had widely different solubility and gelation properties, with each amphiphile forming at least two gels.
Gelation. To a vial containing solid amphiphile was added the appropriate solvent. The vial was sealed and heated over a heat gun (˜110° C. max) until amphiphile fully dissolved. The vial was allowed to cool undisturbed at room temperature, during which time gel formed. For all characterization gels were allowed to form for at least 45 minutes.

[4] = Gelation of Asc-Pal in solvents; assay type: physicochemical
Protocol: Typically, solvents (0.2 mL) were added to a glass scintillation vial with the gelator (0.5-5 wt/vol %) and sealed with a screw cap. The vial was heated to about 60-80° C. until the gelator was completely dissolved. The vial was placed on a stable surface and allowed to cool to room temperature. Typically after 15-45 min, the solution was transitioned into a viscous gel. Gelation was considered to have occurred when no gravitational flow was observed upon inversion of the glass vial, and resulted hydrogels are injectable. Asc-Pal formed gels in water, benzene, toluene, carbon tetrachloride, and acetonitrile; while a precipitate formed in dimethylformamide and dimethylsulfoxide. Asc-Pal was soluble in chloroform and methanol.

[5] = Gelation of Asc-Pal without and with dexamethasone; assay type: physicochemical; settings: 20% ethanol in water
Protocol: Self-assembly of the amphiphiles is a delicate process that could be affected by additional agents. To understand the affect of dexamethasone, gelation of Asc-Pal has been explored in 20% ethanol in water by varying concentration of Asc-Pal (1-5% wt/v) while keeping concentration of dexamethasone (2 mg) constant. Results in Table 6-2 reveal that presence of dexamethasone facilitates the self-assembly of Asc-Pal and strengthen the gelation.

[6] = Gelation ability and minimum gelation concentration of SMS; assay type: physicochemical; settings: for Gelation ability: concentration around 5-9%
Description: MGC values of SMS have varied from 3 to 8 wt/v %.

Structure (SMILES): CC[C@@]1(O)C(=O)OCc2c1cc1n(c2=O)Cc2cc3ccccc3nc2-1 [Camptothecin]
IC50 [1]: 3.9 nM
IC50 [2]: 30 nM

Structure (SMILES): NC(=O)c1cccc(NC(=O)Oc2ccc([N+](=O)[O-])cc2)c1 [Abz-PNP]
Stability of amphiphile [3]: decompose spontaneously

Gelation behaviour ([4]; acetonitrile): gels
Gelation behaviour ([4]; benzene): gels
Gelation behaviour ([4]; carbon tetrachloride): gels
Gelation behaviour ([4]; chloroform): soluble
Gelation behaviour ([4]; dimethylformamide): precipitate
Gelation behaviour ([4]; dimethylsulfoxide): precipitate
Gelation behaviour ([4]; methanol): soluble
Gelation behaviour ([4]; toluene): gels
Gelation behaviour ([4]; water, gelator 0.5-5 wt/vol %): gels
Gelation ([5]; 1% Asc-Pal, with dex (2 mg)): Weak
Gelation ([5]; 1% Asc-Pal, without drug): Not gel
Gelation ([5]; 2% Asc-Pal, with dex (2 mg)): Gel
Gelation ([5]; 2% Asc-Pal, without drug): weak
Gelation ([5]; 3% Asc-Pal, with dex (2 mg)): Gel
Gelation ([5]; 3% Asc-Pal, without drug): Gel
Gelation ([5]; 4% Asc-Pal, with dex (2 mg)): Gel
Gelation ([5]; 4% Asc-Pal, without drug): Gel
Gelation ([5]; 5% Asc-Pal, with dex (2 mg)): Gel
Gelation ([5]; 5% Asc-Pal, without drug): Gel
Structure (SMILES): CCCCCCCCCCCCCCCC(=O)OC[C@H](O)[C@H]1OC(=O)C(O)=C1O [Asc-Pal, Ascorbyl palmitate]

Structure (SMILES): CC(C)CCC[C@@H](C)[C@H]1CC[C@H]2[C@@H]3CC=C4CC(OC(=O)Nc5cccc(C(N)=O)c5)CC[C@]4(C)[C@H]3CC[C@]12C (stereo partly shown) [Abz-Chol]
Gelation in pure organic solvent ([3]; 1,4-dioxane): organogels

Gelation in pure organic solvent ([3]; glycerol): organogels
Structure (SMILES): C=CCOC(=O)Nc1cccc(C(N)=O)c1 [Abz-Alloc]

Gelation ability ([6]; Acetone): Precipitate
Gelation ability ([6]; Acetonitrile (CH3CN)): Precipitate
Gelation ability ([6]; Chloroform): Soluble
Gelation ability ([6]; Dimethyl formamide (DMF)): Soluble
Minimum Gelation Concentration ([6]; Dimethyl sulfoxide (DMSO)): 3% Wt/V %
Gelation in gelling solvent ([6]; Dimethyl sulfoxide (DMSO) (Table 4-2)): Gel
Gelation ability ([6]; Dimethyl sulfoxide (DMSO)): Gel
Gelation ability ([6]; Dioxane): Soluble
Gelation ability ([6]; Ethanol): Soluble
Gelation ability ([6]; Ethyl acetate): Emulsion
Minimum Gelation Concentration ([6]; Ethylene glycol): 5% Wt/V %
Gelation in gelling solvent ([6]; Ethylene glycol (Table 4-2)): Gel
Gelation in gelling solvent ([6]; Glycerol (Table 4-2)): Gel
Gelation ability ([6]; Glycerol): Gel
Gelation ability ([6]; Isobutanol): Soluble
Gelation ability ([6]; Isopropanol): Soluble
Minimum Gelation Concentration ([6]; Isopropyl palmitate): 3% Wt/V %
Gelation in gelling solvent ([6]; Isopropyl palmitate (Table 4-2)): Gel
Gelation ability ([6]; Isopropyl palmitate): Clear Gel
Gelation ability ([6]; Methanol): Precipitate
Gelation ability ([6]; Mono-ethylene glycol): Weak Gel
Gelation ability ([6]; Polyethylene glycol dimethyl acrylate): Increased
Gelation ability ([6]; Tetrachloro methane): Soluble
Gelation ability ([6]; Tetrahydrofuran (THF)): Soluble
Gelation ability ([6]; Toluene): Soluble
Minimum Gelation Concentration ([6]; Water): 3% Wt/V %
Gelation in gelling solvent ([6]; Water (Table 4-2)): Gel
Gelation ability ([6]; Water): Gel
Gelation ability ([6]; Xylene): Soluble
Minimum gelation concentrations (MGC) ([6]; across different solvents): 3 to 8 wt/v %
Minimum Gelation Concentration ([6]; glycerol): 8% Wt/V %
Minimum Gelation Concentration ([6]; n-hexadecane): 2% Wt/V %
Gelation in gelling solvent ([6]; n-hexadecane (Table 4-2)): Gel
Gelation ability ([6]; n-hexadecane): Gel
Minimum Gelation Concentration ([6]; n-hexane): 4% Wt/V %
Gelation in gelling solvent ([6]; n-hexane (Table 4-2)): Gel
Gelation ability ([6]; n-hexane): Gel
Structure (SMILES): CCCCCCCCCCCCCCCCCC(=O)OC[C@@H](O)[C@H]1OC[C@H](O)[C@H]1O [Sorbitane Monostearate, sorbitan monostearate]
